This test has as its target T1, PPARγ (Homo sapiens, UniProt P37231).
T1 construct: gene PPARG
T1 sequence (P37231 231-505 limits assumed): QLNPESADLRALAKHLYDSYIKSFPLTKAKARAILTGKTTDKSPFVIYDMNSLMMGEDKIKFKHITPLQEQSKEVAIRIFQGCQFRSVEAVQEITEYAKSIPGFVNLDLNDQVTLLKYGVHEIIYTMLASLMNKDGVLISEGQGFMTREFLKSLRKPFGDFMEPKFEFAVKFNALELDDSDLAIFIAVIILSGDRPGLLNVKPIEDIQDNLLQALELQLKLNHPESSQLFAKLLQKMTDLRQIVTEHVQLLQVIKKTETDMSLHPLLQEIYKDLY
Put plainly: fluorescence polarization competitive binding assay (PolarScreen PPARγ Green).

For the molecule `CCCCC/C=C\C=C\C(O)CCCCCCCC(=O)O` (centres unmarked) [9-hydroxyoctadecadienoic acid], the half-inhibitory concentration (IC50) was 1800 nM.
For the molecule `O=C(Nc1ccccc1)c1cc([N+](=O)[O-])ccc1Cl` [GW9662], the IC50 was found to be 22.3 nM.

These data come from publication PMC11673078, “DT-13 Mediates Ligand-Dependent Activation of PPARγ Response Elements In Vitro” (Biology, 2024).
